Numbered stars: 1 amine (or outer) side, 2 acyl side, 3 side chain; on linkers, the order of the positions; unused ones are H or OH. Bridge positions count the residues as written; N and C are the ends. Square brackets hold non-standard residues; d marks the D form. Peptide text beside a SMILES is read from it. I, II: the chains in the order shown. Actinocin(9to1) = Cc1c2oc3c(C)ccc(C(=O)[*:1])c3nc-2c(C(=O)[*:2])c(N)c1=O; NMeV = CN[C@H](C(=O)O)C(C)C; Sar = CNCC(=O)O
Tests used:
P-gp = assay: in vitro; details: human
in vitro [1] = details: human, Caco-2
clinical = details: human, in vivo
Description: Fraction absorbed in human

in vitro [2] = details: human, Caco-2; remark: listed apart in the source
in vitro [3] = details: human, Caco-2; remark: listed apart in the source
Intestine = assay: Ratio of intestine AUC in po dosed mdr1 knock out mouse to intestine AUC in po dosed wild type mouse; type: ADME, organism-based; details: in vivo
[4] = target: ATP-binding cassette sub-family C member 2 (Homo sapiens, UniProt Q92887); assay: Fold activity change at MRP2 ATPase (unknown origin) relative to control; type: ADME
[5] = human, caco-2, 2 h, 10 µM
[6] = human, caco-2, 2 h, 10 µM; remark: listed apart in the source
MDCK [7] = assay: Efflux ratio of permeability from basolateral to apical over apical to basolateral side of MDCK cells expressing MDR1; type: ADME, cell-based, Canis lupus familiaris; details: dog
MDCK [8] = assay: Efflux ratio of permeability from basolateral to apical over apical to basolateral side of MDCK cells expressing BCRP; type: ADME, cell-based, Canis lupus familiaris; details: dog
Homo sapiens = organism: Homo sapiens; details: in vivo
Description: Fraction absorbed in human

Sequence of ATP-binding cassette sub-family C member 2 (Q92887 whole entry): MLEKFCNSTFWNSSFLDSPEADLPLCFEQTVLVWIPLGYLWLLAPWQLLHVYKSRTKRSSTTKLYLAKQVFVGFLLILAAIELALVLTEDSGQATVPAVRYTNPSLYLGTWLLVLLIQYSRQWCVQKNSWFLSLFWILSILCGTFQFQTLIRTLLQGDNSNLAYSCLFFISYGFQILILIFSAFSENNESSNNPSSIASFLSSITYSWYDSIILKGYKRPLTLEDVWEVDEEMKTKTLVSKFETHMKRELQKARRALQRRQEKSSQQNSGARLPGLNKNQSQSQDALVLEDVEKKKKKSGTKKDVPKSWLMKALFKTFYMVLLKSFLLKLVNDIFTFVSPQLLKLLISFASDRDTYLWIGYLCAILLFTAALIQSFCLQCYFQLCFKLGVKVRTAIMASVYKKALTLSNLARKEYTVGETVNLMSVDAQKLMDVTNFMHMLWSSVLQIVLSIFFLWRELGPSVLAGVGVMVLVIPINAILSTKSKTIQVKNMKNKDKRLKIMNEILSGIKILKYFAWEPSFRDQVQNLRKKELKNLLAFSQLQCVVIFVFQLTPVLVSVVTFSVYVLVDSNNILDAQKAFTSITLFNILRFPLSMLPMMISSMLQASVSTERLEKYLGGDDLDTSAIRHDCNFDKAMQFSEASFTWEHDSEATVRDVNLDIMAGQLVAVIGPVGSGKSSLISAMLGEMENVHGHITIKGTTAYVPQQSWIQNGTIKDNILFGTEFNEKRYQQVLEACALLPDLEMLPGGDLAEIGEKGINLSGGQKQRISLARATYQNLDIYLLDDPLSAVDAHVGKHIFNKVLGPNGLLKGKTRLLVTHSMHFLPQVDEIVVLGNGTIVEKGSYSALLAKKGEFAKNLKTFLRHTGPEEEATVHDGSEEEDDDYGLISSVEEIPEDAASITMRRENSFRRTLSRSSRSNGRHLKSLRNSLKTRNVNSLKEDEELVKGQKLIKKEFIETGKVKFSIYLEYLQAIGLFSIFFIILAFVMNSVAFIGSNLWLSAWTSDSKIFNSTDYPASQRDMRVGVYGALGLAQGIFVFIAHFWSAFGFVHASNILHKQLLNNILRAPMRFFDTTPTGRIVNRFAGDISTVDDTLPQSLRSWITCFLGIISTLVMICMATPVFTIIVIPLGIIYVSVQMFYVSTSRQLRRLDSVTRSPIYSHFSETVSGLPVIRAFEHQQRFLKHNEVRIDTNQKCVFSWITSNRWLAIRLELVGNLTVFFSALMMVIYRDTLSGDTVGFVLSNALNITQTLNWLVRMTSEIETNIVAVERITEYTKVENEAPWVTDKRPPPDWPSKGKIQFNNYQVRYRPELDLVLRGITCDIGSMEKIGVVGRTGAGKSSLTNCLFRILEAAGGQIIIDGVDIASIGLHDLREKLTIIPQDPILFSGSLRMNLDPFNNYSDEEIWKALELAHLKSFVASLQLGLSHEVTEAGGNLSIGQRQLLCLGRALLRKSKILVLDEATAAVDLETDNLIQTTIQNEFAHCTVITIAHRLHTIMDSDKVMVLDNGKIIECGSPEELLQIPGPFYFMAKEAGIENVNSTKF

## CN/C(=N/CCSCc1nc[nH]c1C)NC#N [CIMETIDINE]
P-gp; Caco-2
  efflux ratio at 2 h, 10 µM: 1.8
In vitro [1]
  Papp B→A at 2 h, 10 µM: 4.8 ×10⁻⁶ cm/s
clinical
  Fa: 60%
In vitro [2]
  Papp A→B at 2 h, 10 µM: 1.4 ×10⁻⁶ cm/s
In vitro [3]
  efflux ratio at 2 h, 10 µM: 3.5
Intestine
  Ratio AUC: 0.95

## COc1cc2c(c(OC)c1OC)-c1ccc(OC)c(=O)cc1[C@@H](NC(C)=O)CC2 [COLCHICINE]
P-gp; Caco-2
  efflux ratio at 2 h, 10 µM: 0.8
[4]
  fold change (FC): -0.4
clinical
  Fa: 44%
In vitro [3]
  efflux ratio at 2 h, 10 µM: 4.3

## Cc1c2oc3c(C)ccc(C(=O)N[C@@H]4C(=O)N[C@H](C(C)C)C(=O)N5CCC[C@H]5C(=O)N(C)CC(=O)N(C)[C@@H](C(C)C)C(=O)O[C@@H]4C)c3nc-2c(C(=O)N[C@@H]2C(=O)N[C@H](C(C)C)C(=O)N3CCC[C@H]3C(=O)N(C)CC(=O)N(C)[C@@H](C(C)C)C(=O)O[C@@H]2C)c(N)c1=O [DACTINOMYCIN] (I: T[dV]P[Sar][NMeV] / II: T[dV]P[Sar][NMeV]; ester I:1-I:C, II:1-II:C; linker I:N-II:N via Actinocin(9to1))
P-gp; Caco-2, with LY335979 1 uM
  efflux ratio at 2 h, 10 µM: 4
[5]
  Papp: 4.5 ×10⁻⁶ cm/s
clinical
  Fa: 5%
In vitro [3]
  efflux ratio at 2 h, 10 µM: 6.4
[6]
  Papp: 0.8 ×10⁻⁶ cm/s

## COc1cccc2c1C(=O)c1c(O)c3c(c(O)c1C2=O)C[C@@](O)(C(C)=O)C[C@@H]3O[C@H]1C[C@H](N)[C@H](O)[C@H](C)O1 [DAUNORUBICIN]
P-gp; Caco-2
  efflux ratio at 2 h, 10 µM: 0.4
clinical
  Fa: 10%
Intestine
  Ratio AUC: 3

## C[C@H]1O[C@@H](O[C@H]2[C@@H](O)C[C@H](O[C@H]3[C@@H](O)C[C@H](O[C@H]4CC[C@@]5(C)[C@H](CC[C@@H]6[C@@H]5C[C@@H](O)[C@]5(C)[C@@H](C7=CC(=O)OC7)CC[C@]65O)C4)O[C@@H]3C)O[C@@H]2C)C[C@H](O)[C@@H]1O [DIGOXIN]
P-gp; Caco-2
  efflux ratio at 2 h, 10 µM: 1
MDCK [7]
  Ratio: 27
clinical
  Fa: 68%
In vitro [3]
  efflux ratio at 2 h, 10 µM: 7.5
MDCK [8]
  Ratio: 1.3
Intestine
  Ratio AUC: 12

## COc1ccc([C@@H]2Sc3ccccc3N(CCN(C)C)C(=O)[C@@H]2OC(C)=O)cc1 [DILTIAZEM]
P-gp; Caco-2, with LY335979 1 uM
  efflux ratio at 2 h, 10 µM: 0.4
In vitro [1]
  Papp B→A at 2 h, 10 µM: 8.3 ×10⁻⁶ cm/s
MDCK [7]
  Ratio: 0.8
In vitro [2]
  Papp A→B at 2 h, 10 µM: 12 ×10⁻⁶ cm/s
In vitro [3]
  efflux ratio at 2 h, 10 µM: 0.7

## O=c1[nH]c2ccccc2n1CCCN1CCC(n2c(=O)[nH]c3cc(Cl)ccc32)CC1 [DOMPERIDONE]
[4]
  fold change (FC): 3
In vitro [1]
  Papp B→A at 2 h, 10 µM: 15.4 ×10⁻⁶ cm/s
clinical
  Fa: 93%
In vitro [2]
  Papp A→B at 2 h, 10 µM: 5.2 ×10⁻⁶ cm/s

## CC[C@H]1OC(=O)[C@H](C)[C@@H](O[C@H]2C[C@@](C)(OC)[C@@H](O)[C@H](C)O2)[C@H](C)[C@@H](O[C@@H]2O[C@H](C)C[C@H](N(C)C)[C@H]2O)[C@](C)(O)C[C@@H](C)C(=O)[C@H](C)[C@@H](O)[C@]1(C)O [ERYTHROMYCIN]
P-gp; Caco-2
  efflux ratio at 2 h, 10 µM: 0.5
[4]
  fold change (FC): 1
In vitro [1]
  Papp B→A at 2 h, 10 µM: 3 ×10⁻⁶ cm/s
clinical
  Fa: 35%
In vitro [2]
  Papp A→B at 2 h, 10 µM: 0.3 ×10⁻⁶ cm/s
In vitro [3]
  efflux ratio at 2 h, 10 µM: 7.1
MDCK [8]
  Ratio: 8.5

## COc1cc([C@@H]2c3cc4c(cc3[C@@H](O[C@@H]3O[C@@H]5CO[C@@H](C)O[C@H]5[C@H](O)[C@H]3O)[C@H]3COC(=O)[C@H]23)OCO4)cc(OC)c1O [ETOPOSIDE]
P-gp; Caco-2
  efflux ratio at 2 h, 10 µM: 1.4
In vitro [1]
  Papp B→A at 2 h, 10 µM: 3 ×10⁻⁶ cm/s
MDCK [7]
  Ratio: 11
clinical
  Fa: 25%
In vitro [2]
  Papp A→B at 2 h, 10 µM: 0.5 ×10⁻⁶ cm/s
In vitro [3]
  efflux ratio at 2 h, 10 µM: 4.8
MDCK [8]
  Ratio: 9.7
Intestine
  Ratio AUC: 3.3

## CC(C)n1c(/C=C/C(O)CC(O)CC(=O)O)c(-c2ccc(F)cc2)c2ccccc21 (centres undefined) [FLUVASTATIN]
P-gp; Caco-2, with LY335979 1 uM
  efflux ratio at 2 h, 10 µM: 12.3
[5]
  Papp: 15.3 ×10⁻⁶ cm/s
MDCK [7]
  Ratio: 4.9
clinical
  Fa: 98%
[6]
  Papp: 1.5 ×10⁻⁶ cm/s

## CN(Cc1cnc2nc(N)nc(N)c2n1)c1ccc(C(=O)N[C@@H](CCC(=O)O)C(=O)O)cc1 [METHOTREXATE]
[4]
  fold change (FC): -0.2
In vitro [1]
  Papp B→A at 2 h, 10 µM: 1.1 ×10⁻⁶ cm/s
In vitro [2]
  Papp A→B at 2 h, 10 µM: 1.2 ×10⁻⁶ cm/s
In vitro [3]
  efflux ratio at 2 h, 10 µM: 0.9

## Cc1ccccc1N1C(=O)c2cc(S(N)(=O)=O)c(Cl)cc2NC1C (centres undefined) [METOLAZONE]
P-gp; Caco-2, with LY335979 1 uM
  efflux ratio at 2 h, 10 µM: 2.1
[5]
  Papp: 9.6 ×10⁻⁶ cm/s
In vitro [3]
  efflux ratio at 2 h, 10 µM: 3.3
[6]
  Papp: 1.8 ×10⁻⁶ cm/s
MDCK [8]
  Ratio: 5.1

## C=CCN1CC[C@]23c4c5ccc(O)c4O[C@H]2C(=O)CC[C@@]3(O)[C@H]1C5 [NALOXONE]
P-gp; Caco-2, with LY335979 1 uM
  efflux ratio at 2 h, 10 µM: 0.5
In vitro [1]
  Papp B→A at 2 h, 10 µM: 10.3 ×10⁻⁶ cm/s
MDCK [7]
  Ratio: 0.7
In vitro [2]
  Papp A→B at 2 h, 10 µM: 21.5 ×10⁻⁶ cm/s
In vitro [3]
  efflux ratio at 2 h, 10 µM: 0.5

## O=C(O)c1cc(/N=N/c2ccc(S(=O)(=O)Nc3ccccn3)cc2)ccc1O [SULFASALAZINE]
P-gp; Caco-2
  efflux ratio at 2 h, 10 µM: 32.2
[4]
  fold change (FC): 9
In vitro [3]
  efflux ratio at 2 h, 10 µM: 16.9

## O=C1C(CC[S+]([O-])c2ccccc2)C(=O)N(c2ccccc2)N1c1ccccc1 (centres undefined) [SULFINPYRAZONE]
P-gp; Caco-2, with LY335979 1 uM
  efflux ratio at 2 h, 10 µM: 9
[5]
  Papp: 5.8 ×10⁻⁶ cm/s
clinical
  Fa: 85%
In vitro [3]
  efflux ratio at 2 h, 10 µM: 3.3
[6]
  Papp: 1.2 ×10⁻⁶ cm/s

## CC[C@@]1(O)C(=O)OCc2c1cc1n(c2=O)Cc2cc3c(CN(C)C)c(O)ccc3nc2-1 [TOPOTECAN]
P-gp; Caco-2, with LY335979 1 uM
  efflux ratio at 2 h, 10 µM: 13.1
[5]
  Papp: 7.1 ×10⁻⁶ cm/s
clinical
  Fa: 30%
In vitro [3]
  efflux ratio at 2 h, 10 µM: 6.9
[6]
  Papp: 0.9 ×10⁻⁶ cm/s
MDCK [8]
  Ratio: 2.4

## CC[C@]1(O)C[C@@H]2CN(CCc3c([nH]c4ccccc34)[C@@](C(=O)OC)(c3cc4c(cc3OC)N(C)[C@H]3[C@@](O)(C(=O)OC)[C@H](OC(C)=O)[C@]5(CC)C=CCN6CC[C@]43[C@@H]65)C2)C1 [VINBLASTINE]
P-gp; Caco-2
  efflux ratio at 2 h, 10 µM: 2
In vitro [1]
  Papp B→A at 2 h, 10 µM: 11.9 ×10⁻⁶ cm/s
clinical
  Fa: 5%
In vitro [2]
  Papp A→B at 2 h, 10 µM: 1 ×10⁻⁶ cm/s
In vitro [3]
  efflux ratio at 2 h, 10 µM: 13.5
MDCK [8]
  Ratio: 1.8
Intestine
  Ratio AUC: 0.7

## IVERMECTIN
Homo sapiens
  Fabs: 56%

Reference: ChEMBL document CHEMBL3526001, “Attenuation of intestinal absorption by major efflux transporters: quantitative tools and strategies using a Caco-2 model” (Drug Metab Dispos, 2011)
